Values of other authors, collected in article PMC11952222, “Development and comparison of single FLT3-inhibitors to dual FLT3/TAF1-inhibitors as an anti-leukemic approach” (PLOS One, 2025).

Tested on: TAF1
Settings: reference compounds; read-out: TAF1 IC50, literature-reported; cited from earlier work

Cc1cc2c(cc1N1C(=O)c3cccc4c(CCCO)ccc(c34)C1=O)n(C)c(=O)n2C [BAY299]
IC50: 8 nM
